Source: patent US4039535A, “7-[α-(GUANYL-1-UREIDO)PHENYLACETAMIDO]-3-SUBSTITUTED CEPHALOSPORIN ANTIBIOTICS” (Eli Lilly and Company, priority 1976, dated 1977)
Converted amounts (≈) assume the structure as drawn. Where two headings read alike, the source gives them in different places.

Key:
Type in all cases: cell-based
Aerobacter aerogenes = experiment: MIC by Gradient Plate Method, in vitro antibiotic activity vs gram-negative microorganisms (Table I); details: Klebsiella aerogenes, read-out: Minimum Inhibitory Conc.
Procedure: (§1) In the tables the minimum inhibitory concentrations (MIC) of the listed compound verses the indicated gram-positive and gram-negative microorganisms is presented.
(§2) The MIC values were determined by the Gradient Plate Method which is essentially the method described by Bryson and Szybalski, Science, 116, 45-46 (1952).

Escherichia coli = experiment: as above; details: read-out: Minimum Inhibitory Conc.
Procedure: as §1, §2

Klebsiella pneumoniae = experiment: as above; details: read-out: Minimum Inhibitory Conc.
Procedure: as §1, §2

Pseudomonas aeruginosa = experiment: as above; details: read-out: Minimum Inhibitory Conc.
Procedure: as §1, §2

Salmonella heidelberg = experiment: as above; details: Salmonella enterica, read-out: Minimum Inhibitory Conc.
Procedure: as §1, §2

Serratia marcescens = experiment: as above; details: read-out: Minimum Inhibitory Conc.
Procedure: as §1, §2

Shigella sp. = experiment: as above; details: read-out: Minimum Inhibitory Conc.
Procedure: as §1, §2

[1] = system: penicillin resistant staphylococcus V32; experiment: MIC by Gradient Plate Method vs penicillin resistant staphylococcus clinical isolates (Table II); details: read-out: Minimum Inhibitory Concentration
Procedure: as §1, §2

[2] = system: penicillin resistant staphylococcus V41; experiment: as above; details: read-out: Minimum Inhibitory Concentration
Procedure: as §1, §2

[3] = system: penicillin resistant staphylococcus V84; experiment: as above; details: read-out: Minimum Inhibitory Concentration
Procedure: as §1, §2

[4] = system: penicillin resistant staphylococcus X1.1; experiment: as above; details: read-out: Minimum Inhibitory Concentration
Procedure: as §1, §2

[5] = system: gram-negative microorganisms; experiment: Antibiotic activity against gram-negative microorganisms, summary of Table I; details: in words; MIC values in Table I; vs compound E
Procedure: as §1, §2

Cn1nnnc1SCC1=C(C(=O)O)N2C(=O)C(NC(=O)[C@H](NC(=O)NC(=N)N)c3ccccc3)C2SC1 (stereo partly drawn) [A, 7-[D-α-(3-Guanyl-1-ureido)phenylacetamido]-3-(1-methyl-1H-tetrazol-5yl-thiomethyl)-3-cephem-4-carboxylic acid]
MIC (Aerobacter aerogenes): 0.7 µg/mL (≈ 1.28 µM) | MIC (Escherichia coli): 2 µg/mL (≈ 3.66 µM) | MIC (Klebsiella pneumoniae): 1 µg/mL (≈ 1.83 µM) | MIC (Pseudomonas aeruginosa): 53.5 µg/mL (≈ 97.9 µM) | MIC (Salmonella heidelberg): 0.8 µg/mL (≈ 1.46 µM) | MIC (Serratia marcescens): 7 µg/mL (≈ 12.8 µM) | MIC (Shigella sp.): 2 µg/mL (≈ 3.66 µM) | MIC ([1]; N.S. = in the absence of serum): 1 µg/mL (≈ 1.83 µM) | MIC ([1]; S = in the presence of serum): 9 µg/mL | MIC ([2]; N.S. = in the absence of serum): 0.7 µg/mL (≈ 1.28 µM) | MIC ([2]; S = in the presence of serum): 1 µg/mL | MIC ([3]; N.S. = in the absence of serum): 0.6 µg/mL (≈ 1.1 µM) | MIC ([3]; S = in the presence of serum): 1 µg/mL | MIC ([4]; N.S. = in the absence of serum): 0.5 µg/mL (≈ 0.915 µM) | MIC ([4]; S = in the presence of serum): < 0.1 µg/mL | activity against gram-negative microorganisms compared with known compound E [5]: significantly greater activity against gram-negative microorganisms than the known compound, E

Cc1nnc(SCC2=C(C(=O)O)N3C(=O)C(NC(=O)[C@H](NC(=O)NC(=N)N)c4ccccc4)C3SC2)s1 (stereo partly drawn) [B, 7-[d-α-(3-guanyl-1-ureido)phenylacetamido]-3-(5-methyl-1,3,4-thiadiazol-2-yl-thiomethyl)-3-cephem-4-carboxylid acid]
MIC (Aerobacter aerogenes): 1 µg/mL (≈ 1.78 µM) | MIC (Escherichia coli): 8.7 µg/mL (≈ 15.5 µM) | MIC (Klebsiella pneumoniae): 1 µg/mL (≈ 1.78 µM) | MIC (Pseudomonas aeruginosa): 104 µg/mL (≈ 185 µM) | MIC (Salmonella heidelberg): 6 µg/mL (≈ 10.7 µM) | MIC (Serratia marcescens): 14.3 µg/mL (≈ 25.4 µM) | MIC (Shigella sp.): 5.5 µg/mL (≈ 9.78 µM) | MIC ([1]; N.S. = in the absence of serum): 1 µg/mL (≈ 1.78 µM) | MIC ([1]; S = in the presence of serum): > 20 µg/mL | MIC ([2]; N.S. = in the absence of serum): 1 µg/mL (≈ 1.78 µM) | MIC ([2]; S = in the presence of serum): > 20 µg/mL | MIC ([3]; N.S. = in the absence of serum): 0.6 µg/mL (≈ 1.07 µM) | MIC ([3]; S = in the presence of serum): 10 µg/mL | MIC ([4]; N.S. = in the absence of serum): 0.6 µg/mL (≈ 1.07 µM) | MIC ([4]; S = in the presence of serum): 10 µg/mL | activity against gram-negative microorganisms compared with known compound E [5]: significantly greater activity against gram-negative microorganisms than the known compound, E

Cn1nnnc1SCC1=C(C(=O)O)N2C(=O)C(NC(=O)[C@H](NC(=O)NC(=N)N)c3ccc(O)cc3)C2SC1 (stereo partly drawn) [C, 7-[d-α-(3-guanyl-1-ureido)-4-hydroxyphenylacetamido]-3-(1-methyl-1H-tetrazol-5-yl-thiomethyl)-3-cephem-4-carboxylic acid]
MIC (Aerobacter aerogenes): 0.1 µg/mL (≈ 0.178 µM) | MIC (Escherichia coli): 0.7 µg/mL (≈ 1.24 µM) | MIC (Klebsiella pneumoniae): 1.2 µg/mL (≈ 2.13 µM) | MIC (Pseudomonas aeruginosa): 23 µg/mL (≈ 40.9 µM) | MIC (Salmonella heidelberg): 0.2 µg/mL (≈ 0.355 µM) | MIC (Serratia marcescens): 21 µg/mL (≈ 37.3 µM) | MIC (Shigella sp.): 0.7 µg/mL (≈ 1.24 µM) | MIC ([1]; N.S. = in the absence of serum): 1 µg/mL (≈ 1.78 µM) | MIC ([1]; S = in the presence of serum): 10 µg/mL | MIC ([2]; N.S. = in the absence of serum): < 0.1 µg/mL | MIC ([2]; S = in the presence of serum): 10 µg/mL | MIC ([3]; N.S. = in the absence of serum): < 0.1 µg/mL | MIC ([3]; S = in the presence of serum): 1 µg/mL | MIC ([4]; N.S. = in the absence of serum): < 0.1 µg/mL | MIC ([4]; S = in the presence of serum): 0.6 µg/mL | activity against gram-negative microorganisms compared with known compound E [5]: significantly greater activity against gram-negative microorganisms than the known compound, E

Cc1nnc(SCC2=C(C(=O)O)N3C(=O)C(NC(=O)[C@H](NC(=O)NC(=N)N)c4ccc(O)cc4)C3SC2)s1 (stereo partly drawn) [D, 7-[d-α-(3-guanyl-1-ureido)-4-hydroxyphenylacetamido]-3-(5-methyl-1,3,4-thiadiazol-2-yl-thiomethyl)-3-cephem-4-carboxylic acid]
MIC (Aerobacter aerogenes): 1 µg/mL (≈ 1.73 µM) | MIC (Escherichia coli): 6 µg/mL (≈ 10.4 µM) | MIC (Klebsiella pneumoniae): 1 µg/mL (≈ 1.73 µM) | MIC (Pseudomonas aeruginosa): 50 µg/mL (≈ 86.4 µM) | MIC (Salmonella heidelberg): 1 µg/mL (≈ 1.73 µM) | MIC (Serratia marcescens): 50 µg/mL (≈ 86.4 µM) | MIC (Shigella sp.): 4.5 µg/mL (≈ 7.78 µM) | MIC ([1]; N.S. = in the absence of serum): 1 µg/mL (≈ 1.73 µM) | MIC ([1]; S = in the presence of serum): 12 µg/mL | MIC ([2]; N.S. = in the absence of serum): 1 µg/mL (≈ 1.73 µM) | MIC ([2]; S = in the presence of serum): 6 µg/mL | MIC ([3]; N.S. = in the absence of serum): 1 µg/mL (≈ 1.73 µM) | MIC ([3]; S = in the presence of serum): 2 µg/mL | MIC ([4]; N.S. = in the absence of serum): 1 µg/mL (≈ 1.73 µM) | MIC ([4]; S = in the presence of serum): 1 µg/mL | activity against gram-negative microorganisms compared with known compound E [5]: significantly greater activity against gram-negative microorganisms than the known compound, E

CC(=O)OCC1=C(C(=O)O)N2C(=O)C(NC(=O)[C@H](NC(=O)NC(=N)N)c3ccccc3)C2SC1 (stereo partly drawn) [E, 7-[d-α-(3-guanyl-1-ureido)phenylacetamido]-3-acetoxymethyl-3-cephem-4-carboxylic acid, reference compound]
MIC (Aerobacter aerogenes): 4.5 µg/mL (≈ 9.17 µM) | MIC (Escherichia coli): 13.8 µg/mL (≈ 28.1 µM) | MIC (Klebsiella pneumoniae): 21.5 µg/mL (≈ 43.8 µM) | MIC (Pseudomonas aeruginosa): 100 µg/mL (≈ 204 µM) | MIC (Salmonella heidelberg): 6 µg/mL (≈ 12.2 µM) | MIC (Serratia marcescens): 31.5 µg/mL (≈ 64.2 µM) | MIC (Shigella sp.): 16.3 µg/mL (≈ 33.2 µM) | MIC ([1]; N.S. = in the absence of serum): 0.7 µg/mL (≈ 1.43 µM) | MIC ([1]; S = in the presence of serum): 1 µg/mL | MIC ([2]; N.S. = in the absence of serum): 0.5 µg/mL (≈ 1.02 µM) | MIC ([2]; S = in the presence of serum): 1 µg/mL | MIC ([3]; N.S. = in the absence of serum): 0.6 µg/mL (≈ 1.22 µM) | MIC ([3]; S = in the presence of serum): 1 µg/mL | MIC ([4]; N.S. = in the absence of serum): 0.6 µg/mL (≈ 1.22 µM) | MIC ([4]; S = in the presence of serum): 1 µg/mL
